Assay [1] deals with rat paw edema. Briefly: Carrageenan rat paw edema model. The class given is in vivo. As to conditions: for onset of action / maximum activity at 24 hours: rat paw edema; for reduction of swelling (percent inhibition of edema volume vs vehicle): injected into paw. As for the experimental part:
The compounds of the invention were also tested in vivo in a rat paw edema model [Hirschelmann, R. and Bekemeier, H., Int J Tissue React 6, 471-475 (1984)], which persons of skill in the art accept as predictive of efficacy in treating asthma and rhinitis in humans.
Rat Paw Edema Protocol: Male Sprague Dawley rats Rj: SD (IOPS Han) (CEJ, France) weighing between 140 and 160 grams were used in the studies. Animals were housed in a temperature (19.5-24.5° C.), relative humidity (40-70%) and 12-hour light/dark cycle (light 6:00 a.m. to 6:00 p.m.)-controlled room, with ad libitum access to filtered tap-water and standard pelleted laboratory chow (U.A.R., France) throughout the studies. Carrageenan lambda type IV (Sigma, France) was prepared as a 2% (w/v) solution in saline. Compounds to be tested were dissolved in dimethylsulfoxide (DMSO) such that the indicated doses were in a final volume of 0.05 mL. Doses were expressed as mg/paw free active substance. From 17 to 19 hours before the studies the rats were fasted with free access to water. The paw volumes of the left hindpaws of the rats were measured using an electronic plethysmometer type 7140 (Ugo Basile-Italy) at time=0. Paw edema was then induced by injection of 0.05 mL of 2% carrageenan solution into the left hindpaws of the rats. Immediately after injection of the carrageenan, compounds in DMSO or vehicle alone were injected into the same paw in a volume of 0.05 mL in a blind and random fashion.
The paw volumes were measured at 1.5 hours, 3 hours, 4.5 hours and 24 hours after administration of the compounds. The edema volume of each rat at each time point was expressed as the change from the initial paw volume (time=0). A total of 5 rats were used for each compound dose and the average edema volume calculated for each dose. The anti-inflammatory effect in treated groups was expressed as the percent inhibition of edema volume compared to the vehicle-treated group at 1.5 hours, 3 hours, 4.5 hours and 24 hours.

For assay [2], the system named is WI-38 human lung fibroblast line (IL-1β-stimulated PGE2). Put plainly: Inhibition of IL-1β-stimulated PGE2 release in WI-38 cells. As to conditions: WI-38 cells stimulated with recombinant human IL-1β, 24 hours incubation, PGE2 by EIA; read-out: IC50 (level of PGE2 in supernatants). The class given is cell-based. As for the experimental part:
Compounds as described above were tested in the following assay for biological activity. The WI-38 human lung fibroblast line was obtained from the ATCC (catalog number 75-CCL) and maintained in Basal Medium Eagle with Earle's salts (GibcoBRL product number 21010-046) supplemented with 2 mM glutamine and 10% fetal calf serum at 37° C. in a 7% CO2 (balance air), humidified atmosphere. One week before experiments were done, the WI-38 cells were seeded into 48-well tissue culture dishes and maintained in media containing 10% fetal calf serum. The cells were used when confluent. The day before the experiment the cells were fed fresh media containing 10% fetal calf serum (0.25 mL per well). On the day of the experiment the media was removed from the cells and 0.25 mL of media containing 5% fetal calf serum added.
To determine the IC50 values for the compounds, 1 to 1000 dilutions were made of the 5 mM stock solutions in DMSO to give 5 uM solutions. These solutions were serially diluted 1:2 in DMSO to give a series of 12 dilutions ranging from 5 uM to 2.4 nM. 0.0025 mL aliquots of the 12 dilutions were added to wells of the WI-38 cells to give final compound concentrations ranging from 50 nM to 0.024 nM. The cells were stimulated by addition of 0.001 mL of 0.025 ug/mL recombinant human Interleukin-1β (IL-1β-Calbiochem catalog number 407615) in 0.1% bovine serum albumin in phosphate buffered saline. The cells were incubated for 24 hours and the supernatants harvested. The level of PGE2 in the supernatants was assayed using a commercial Enzyme Immuno Assay (EIA) kit (Cayman Chemical catalog number 514010) after diluting 1:10 in EIA buffer according to the manufacturer's directions. The data from these experiments was fit to a 4 parameter logistic function using the IC50 routine in the Grafit 4 program (Erithecus software).

The mark [3] stands for this setting: at 24 hours, equimolar doses equivalent to 10 μg per paw of budesonide, FIG. 1.

As for “Budesonide farnesolcarbonate [Example 17]”, in assay [1], the onset of action result was “normal onset of action” and the “maximum activity at 24 hours” value is given as 86%.

As a reminder, the IC50 is the concentration that inhibits the measured activity by half. Take `CCCC1OC2CC3C4CCC5=CC(=O)C=CC5(C)C4C(O)CC3(C)C2(C(=O)COC(=O)OCC(C)C)O1` (stereo not shown) [Example 1, Budesonide isobutylcarbonate]: the concentration for half-maximal inhibition (IC50) in assay [2] is 120 pM.

Take `CCCCCCCCCCOC(=O)OCC(=O)[C@@]12OC(CCC)O[C@@H]1C[C@H]1[C@@H]3CCC4=CC(=O)C=C[C@]4(C)[C@H]3[C@@H](O)C[C@@]12C` (stereo partly shown) [Example 8, Budesonide decylcarbonate]: in assay [1] (setting [3]), the “more efficacious than budesonide itself” value was found to be 30%.

With `CCCC1O[C@@H]2C[C@H]3[C@@H]4CCC5=CC(=O)C=C[C@]5(C)[C@H]4[C@@H](O)C[C@]3(C)[C@]2(C(=O)CO)O1` (stereo partly shown) [budesonide, reference compound], in assay [2], the IC50 worked out at 200 pM. In assay [1] (setting [3]), the “reduction of swelling (percent inhibition of edema volume vs vehicle)” value came to 46%.

Turning to Budesonide dodecylcarbonate [Example 2], the half-inhibitory concentration (IC50) in assay [2] is 530 pM. Also, the “reduction of swelling (percent inhibition of edema volume vs vehicle)” value in assay [1] (setting [3]) was determined as 88%.

Budesonide heptylcarbonate [Example 14]: in assay [1] (setting [3]), the “efficacy compared with the C6 carbonate ester” value was “more efficacious”.

As to Budesonide hexylcarbonate [Example 3], the IC50 in assay [2] was determined as 140 pM.

Turning to `CCCC1OC2CC3C4CCC5=CC(=O)C=CC5(C)C4C(O)CC3(C)C2(C(=O)COC(=O)OCCCCCCCCCCCN(C)C)O1` (stereo not shown) [Example 15, Budesonide 11-dimethylaminoundecylcarbonate], in assay [1], the “maximum activity at 24 hours” value is on record as 73%.

On to Budesonide phytolcarbonate [Example 16], for which, in assay [1], the onset of action entry is on record as “normal onset of action” and the “maximum activity at 24 hours” value worked out at 69%.

The record behind these values is US7018995B2, “Carbonate and carbamate modified forms of glucocorticoids” (Sepracor Inc., priority 2002, dated 2006).
